Laboratory results from patent US20230181535A1, “UBIQUITIN-LIGASE INHIBITORS FOR THE TREATMENT OF CANCER” (FUNDACIÓN PROFESOR NOVOA SANTOS, priority 2020, published 2023).

Legend:
[1] = system: LoVo cells; assay: BrdU proliferation assay, LoVo; assay type: cell-based; settings: 48 h
Procedure: (§1) For BrdU assays, 1×10^4 of indicated cells were plated per well into a 96-well plate. After 24 h, cells were treated with the indicated inhibitors for 48 h. Three independent experiments were plated with six replicates per each condition. Cells were treated with […] BrdU for 2 h. BrdU incorporation into newly synthesized DNA was measured using a cell proliferation colorimetric immunoassay kit according to the manufacturer's instructions (Roche, Switzerland). Results are expressed as mean±S.D. Results are represented as percentage of positive cells (mean±S.D) of three independent experiments.

[2] = system: Hakai-MDCK cells; assay: Invasion assay, Hakai-MDCK; assay type: cell-based; settings: treated 48 h
Procedure: (§2) For invasion assays, cells were treated with Hakin-1 or DMSO as vehicle for 48 h using 1% FBS during the last 24 hours. 3×10^5 MDCK, MDCK-Hakai or LoVo cells were seeded in a cell invasion chamber (Cell invasion assay kit, Chemicon International) containing medium with 2% FBS. After 72 hours for MDCK and MDCK-Hakai Invasive and 16 h for LoVo cells, invasive cells invaded that reach the lower chamber containing 30% FBS were fixed and stained with crystal violet (Sigma Aldrich, St Louis, Mo.) following the manufacturer's specifications. For migration assays, HT29 cells were cultured with Hakin-1 or DMSO as vehicle for 48 h, using medium without serum the last 24 h. In the cell migration chamber were seeded 3×10^5 HT29 cells (Cell migration kit, Millipore, Bedford, Mass.) containing medium without serum. After 16 h, migrated cells in the lower chamber containing serum with 30% FBS were stained with crystal violet and counted following the manufacturer's specifications. For both invasion and migration assays cells were counted in five fields photographed with an Olympus microscope using a 20× objective, experiments were performed in triplicates for each condition and the assays were repeated at least three times. Results are expressed as mean±SD.

[3] = system: HT-29 cells; assay: Western blotting of EMT markers, HT-29; assay type: cell-based, human; settings: HT-29; 48 h
Procedure: For western blot analysis, cells were treated with the indicated inhibitors for 48 h and the whole cell extracts were obtained as described previously. Twenty micrograms of lysates were resolved on a 10% polyacrilamide SDS-PAGE followed by western blot analysis performed as previously described. For immunofluorescence assays cells were grown for 24 h on glass coverslips and treated with the indicated inhibitors for 48 h. Cells were fixed with 4% PFA for 15 min, permeabilized with 0.5% […] and incubated with E-cadherin antibody for 2 h. Coverslips were incubated with fluorescein-tagged secondary antibody (Dakopatts, Sweden) for […]. Finally coverslips were mounted with ProLong Gold antifade reagent (LifeTech, UK) and images were taken in epifluorescence microscope (Olympus) using 40× objective. Immunofluorescence of E-cadherin and DNA content analysis for FIGS. 22-23 were performed culturing of HT-29 human colorectal adenocarcinoma cell line in 384-well plates with densities of 3,000 cells per well in a total volume of 25 μl. After the completion of the staining, four images (2×2 array) of each well were taken with Vala Sciences' SIM™ with a 20× objective. Each image was acquired as a SIM Synthetic Focus with a z-stack range of 6 μm with 1 μm steps. The SIM Synthetic Focus feature will compile a “best focus” images from multiple images. One set of SIM Synthetic Focus images were taken in the DAPI channel for Hoechst 33342 staining, and another set of images were taken in the FITC channel for anti-E-cadherin-AlexaFluor488 labeling and analysed by Structured Illumination Microscopy (SIM™) platform to image the cells and Vala's CyteSeer® Cell-Cell Junction Algorithm to quantify the degree of expression and intracellular location of E-cadherin Vala's CyteSeer® Software can also measure relative DNA content by analyzing Total Integrated Intensity (TII) of the Nuclear Image (Ni) on the Nuclear Mask (Nm). This analysis was performed by Vala Science. Twenty compounds from were assayed in a “blinded” manner, at 2 test concentrations in 6 replicate wells for first assay and 3 replicate for second assay.

[4] = system: HT29 cells; assay: Migration assay, HT29; assay type: cell-based, human; settings: HT-29; treated 48 h
Procedure: as §2

[5] = system: non-transformed epithelial MDCK cells; assay: BrdU proliferation assay, MDCK; assay type: cell-based; settings: 48 h
Procedure: as §1

[6] = system: Hakai-MDCK cells; assay: BrdU proliferation assay, Hakai-MDCK; assay type: cell-based; settings: 48 h
Procedure: as §1

[7] = system: ubiquitination in 293T cells; assay: Ubiquitination assay in 293T cells transfected with v-Src and HA-ubiquitin (Hakai not overexpressed); assay type: cell-based; settings: vs DMSO
Procedure: Six hours after transfection cells were treated with indicated concentrations of Hakin-1, Hakin-5 or the rest of the compounds tested for 36 h. Whole cell extracts were obtained in lysis buffer (20 mM Tris-HCl pH 7.5, 150 mM NaCl and 1% Triton X-100) containing 10 μg/ml leupeptin, 10 μg/ml aprotinin and 1 mM phenylmethanesulphonyl fluoride (PMSF), supplemented with 10 mM N-ethylmaleimide. Cells were harvested and subjected to western blotting using anti-HA antibody to detect ubiquitination.

[8] = system: Hakai-MDCK cells; assay: Soft agar-colony formation assay, Hakai-MDCK; assay type: cell-based; settings: 21 days
Procedure: Soft agar-colony formation assay was performed on 12-well plates in triplicates at a density of 5×10^3 MDCK and MDCK-Hakai cells/well, or 12×10^3 HT29 cells/well. Cells were seeded in medium with 0.5% low-melting agarose over a layer with 0.75% low-melting agarose (Lonza Rockland, Me., USA). Cells were treated with the indicated inhibitors and DMSO was used as vehicle. Treatment was refreshed every 3 days and, after 21 days for MDCK and MDCK-Hakai cells or 28 days for HT29 cells, number of colonies were quantified. Quantification of five randomly-selected fields of each condition was photographed with a Nikon Eclipse-TI microscope (objective 4×). Experiments were conducted with three triplicates and were repeated three times. Data are represented as mean±SD.

[9] = system: Colon cancer HCT116 cells; assay: BrdU proliferation assay, HCT116; assay type: cell-based, human; settings: 48 h
Procedure: as §1

[10] = system: HCT116 colon cancer cells; assay: MTT cell viability assay, HCT116; assay type: cell-based, human; settings: concentrations tested in the previous assays
Procedure: For cytotoxicity assays, 1×10^4 cells were seeded per well into a 96-well plate. After 24 h cells were treated with the indicated inhibitors for 72 h and a MTT colorimetric cell viability assay was performed following manufacturer's instructions (Sigma Aldrich, St Louis, Mo.). Absorbance was measured at 570 and 630 nm using a Multiskan Plus Reader (Nanoquant Infinite M200 Tecan Trading AG, Switzerland). Dose-response curves were designed with Graph Pad Prism Software and the half-maximal inhibitory concentration (IC50) values were calculated. Represented data are the mean±SEM of at least three independent experiments with six replicates per condition.

| SMILES | cell proliferation (BrdU) [1] | cell invasion [2] | Cortactin expression levels (western blotting) [3] | E-cadherin levels (western blotting) [3] | Vimentin mesenchymal marker (western blotting) [3] | cell migration [4] | cell proliferation (BrdU) [5] | cell proliferation (BrdU) [6] | ubiquitination when Hakai was not overexpressed [7] | colony formation in soft agar [8] | cell proliferation (BrdU) [9] | cytotoxic effect (cell viability, MTT) [10] |
| --- | --- | --- | --- | --- | --- | --- | --- | --- | --- | --- | --- | --- |
| O=C(O)c1ccc(-n2nnnc2SCC(=O)c2ccc([N+](=O)[O-])cc2)cc1 [Hakin-1, 4-(5-[2-(4-nitrophenyl)-2-oxoethyl]thiol-1H-tetrazol-1-yl)benzoic acid] | reduced cell proliferation | decreased cell invasion | increase expression levels | increase E-cadherin levels | reduced | important reduction of cell migration | no effect was detected | suppress proliferation | did not affect ubiquitination | robust inhibition of colony formation |  |  |
| O=C(O)c1ccc(-n2nnnc2SCC(O)c2ccc([N+](=O)[O-])cc2)cc1 (stereo not drawn) [MKH1] |  |  |  |  |  |  |  |  |  |  | inhibit cell proliferation | no cytotoxic effect |
